Measurements as given in PubChem BioAssay (NCI).
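Five compound concentrations were applied to cells in 96-well plates for 48 hours; endpoints were derived by simple linear interpolation of the resulting dose-response curve. GI50 marks 50% less growth. TGI denotes the concentration required for complete inhibition of growth.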

Legend:
Assay in all cases: NCI-60 cell line screen, 48 h
HCT-116 colon = system: HCT-116 colon
MDA-MB-231 breast = system: MDA-MB-231 breast
COLO 205 colon = system: COLO 205 colon
KM12 colon = system: KM12 colon
SW-620 colon = system: SW-620 colon
SK-MEL-28 melanoma = system: SK-MEL-28 melanoma
LOX IMVI melanoma = system: LOX IMVI melanoma
DU-145 prostate = system: DU-145 prostate
K-562 leukemia = system: K-562 leukemia
M14 melanoma = system: M14 melanoma
SNB-19 CNS = system: SNB-19 CNS
CAKI-1 renal = system: CAKI-1 renal
MALME-3M melanoma = system: MALME-3M melanoma
EKVX NSCLC = system: EKVX NSCLC
OVCAR-4 ovarian = system: OVCAR-4 ovarian
HOP-92 NSCLC = system: HOP-92 NSCLC
OVCAR-3 ovarian = system: OVCAR-3 ovarian
SK-MEL-2 melanoma = system: SK-MEL-2 melanoma
ACHN renal = system: ACHN renal
NCI-H23 lung = system: NCI-H23 lung
SF-295 CNS = system: SF-295 CNS
UACC-257 melanoma = system: UACC-257 melanoma
NCI-H522 lung = system: NCI-H522 lung
CCRF-CEM leukemia = system: CCRF-CEM leukemia
T-47D breast = system: T-47D breast
MCF7 breast = system: MCF7 breast
IGROV1 ovarian = system: IGROV1 ovarian
BT-549 breast = system: BT-549 breast
UO-31 renal = system: UO-31 renal
SF-268 CNS = system: SF-268 CNS
NCI/ADR-RES ovarian = system: NCI/ADR-RES ovarian
HS 578T breast = system: HS 578T breast
NCI-H226 lung = system: NCI-H226 lung
HL-60(TB) leukemia = system: HL-60(TB) leukemia
786-0 renal = system: 786-0 renal
HCT-15 colon = system: HCT-15 colon
A498 renal = system: A498 renal
A549 NSCLC = system: A549 NSCLC
RXF 393 renal = system: RXF 393 renal
SF-539 CNS = system: SF-539 CNS
HT29 colon = system: HT29 colon
OVCAR-8 ovarian = system: OVCAR-8 ovarian
UACC-62 melanoma = system: UACC-62 melanoma
HOP-62 NSCLC = system: HOP-62 NSCLC
OVCAR-5 ovarian = system: OVCAR-5 ovarian
U251 CNS = system: U251 CNS
HCC-2998 colon = system: HCC-2998 colon
MDA-MB-435 = system: MDA-MB-435
RPMI-8226 leukemia = system: RPMI-8226 leukemia
SK-MEL-5 melanoma = system: SK-MEL-5 melanoma
PC-3 prostate = system: PC-3 prostate
MOLT-4 leukemia = system: MOLT-4 leukemia
TK-10 renal = system: TK-10 renal
SN12C renal = system: SN12C renal
SK-OV-3 ovarian = system: SK-OV-3 ovarian
NCI-H460 lung = system: NCI-H460 lung
SNB-75 CNS = system: SNB-75 CNS

COC(=O)C1=C(C(=O)OC)SC(=C2S[C@@H]3[C@@H]4C[C@H]([C@@H]3S2)[C@H]2C(=O)OC(=O)[C@@H]42)S1
TGI (HCT-116 colon): > 100 µM | TGI (MDA-MB-231 breast): > 100 µM | TGI (COLO 205 colon): > 100 µM | TGI (KM12 colon): > 100 µM | TGI (SW-620 colon): > 100 µM | TGI (SK-MEL-28 melanoma): > 100 µM | TGI (LOX IMVI melanoma): > 100 µM | TGI (DU-145 prostate): > 100 µM | TGI (K-562 leukemia): > 100 µM | TGI (M14 melanoma): > 100 µM | TGI (SNB-19 CNS): > 100 µM | TGI (CAKI-1 renal): > 100 µM | TGI (MALME-3M melanoma): > 100 µM | TGI (EKVX NSCLC): > 100 µM | TGI (OVCAR-4 ovarian): > 100 µM | TGI (HOP-92 NSCLC): > 100 µM | TGI (OVCAR-3 ovarian): > 100 µM | TGI (SK-MEL-2 melanoma): > 100 µM | TGI (ACHN renal): > 100 µM | TGI (NCI-H23 lung): > 100 µM | TGI (SF-295 CNS): > 100 µM | TGI (UACC-257 melanoma): > 100 µM | TGI (NCI-H522 lung): > 100 µM | TGI (CCRF-CEM leukemia): > 100 µM | TGI (T-47D breast): > 100 µM | TGI (MCF7 breast): > 100 µM | TGI (IGROV1 ovarian): > 100 µM | TGI (BT-549 breast): > 100 µM | TGI (UO-31 renal): > 100 µM | TGI (SF-268 CNS): > 100 µM | TGI (NCI/ADR-RES ovarian): > 100 µM | TGI (HS 578T breast): > 100 µM | TGI (NCI-H226 lung): > 100 µM | TGI (HL-60(TB) leukemia): > 100 µM | TGI (786-0 renal): > 100 µM | TGI (HCT-15 colon): > 100 µM | TGI (A498 renal): > 100 µM | TGI (A549 NSCLC): > 100 µM | TGI (RXF 393 renal): > 100 µM | TGI (SF-539 CNS): > 100 µM | TGI (HT29 colon): > 100 µM | TGI (OVCAR-8 ovarian): > 100 µM | TGI (UACC-62 melanoma): > 100 µM | TGI (HOP-62 NSCLC): > 100 µM | TGI (OVCAR-5 ovarian): > 100 µM | TGI (U251 CNS): > 100 µM | TGI (HCC-2998 colon): > 100 µM | TGI (MDA-MB-435): > 100 µM | TGI (RPMI-8226 leukemia): > 100 µM | TGI (SK-MEL-5 melanoma): > 100 µM | TGI (PC-3 prostate): > 100 µM | TGI (MOLT-4 leukemia): > 100 µM | TGI (TK-10 renal): > 100 µM | TGI (SN12C renal): > 100 µM

COC1C(OC(=O)/C=C/C=C/C=C/C=C\C(=O)O)CCC2(CO2)C1C1(C)OC1CC=C(C)C (configuration not stated)
GI50 (HCT-116 colon): > 200 µM | TGI (HCT-116 colon): > 200 µM | GI50 (MDA-MB-231 breast): > 200 µM | TGI (MDA-MB-231 breast): > 200 µM | GI50 (COLO 205 colon): > 200 µM | TGI (COLO 205 colon): > 200 µM | GI50 (KM12 colon): > 200 µM | TGI (KM12 colon): > 200 µM | GI50 (SW-620 colon): > 200 µM | TGI (SW-620 colon): > 200 µM | GI50 (SK-MEL-28 melanoma): > 200 µM | TGI (SK-MEL-28 melanoma): > 200 µM | GI50 (LOX IMVI melanoma): > 200 µM | TGI (LOX IMVI melanoma): > 200 µM | GI50 (DU-145 prostate): > 200 µM | TGI (DU-145 prostate): > 200 µM | GI50 (SK-OV-3 ovarian): > 200 µM | TGI (SK-OV-3 ovarian): > 200 µM | GI50 (K-562 leukemia): > 200 µM | TGI (K-562 leukemia): > 200 µM | GI50 (M14 melanoma): > 200 µM | TGI (M14 melanoma): > 200 µM | GI50 (SNB-19 CNS): > 200 µM | TGI (SNB-19 CNS): > 200 µM | GI50 (CAKI-1 renal): > 200 µM | TGI (CAKI-1 renal): > 200 µM | TGI (MALME-3M melanoma): > 200 µM | GI50 (EKVX NSCLC): > 200 µM | TGI (EKVX NSCLC): > 200 µM | GI50 (OVCAR-4 ovarian): > 200 µM | TGI (OVCAR-4 ovarian): > 200 µM | GI50 (HOP-92 NSCLC): > 200 µM | TGI (HOP-92 NSCLC): > 200 µM | GI50 (OVCAR-3 ovarian): > 200 µM | TGI (OVCAR-3 ovarian): > 200 µM | GI50 (SK-MEL-2 melanoma): > 200 µM | TGI (SK-MEL-2 melanoma): > 200 µM | GI50 (ACHN renal): > 200 µM | TGI (ACHN renal): > 200 µM | GI50 (NCI-H23 lung): > 200 µM | TGI (NCI-H23 lung): > 200 µM | GI50 (SF-295 CNS): > 200 µM | TGI (SF-295 CNS): > 200 µM | GI50 (NCI-H522 lung): > 200 µM | TGI (NCI-H522 lung): > 200 µM | GI50 (CCRF-CEM leukemia): > 200 µM | TGI (CCRF-CEM leukemia): > 200 µM | GI50 (T-47D breast): > 200 µM | TGI (T-47D breast): > 200 µM | GI50 (NCI-H460 lung): > 200 µM | TGI (NCI-H460 lung): > 200 µM | GI50 (MCF7 breast): > 200 µM | TGI (MCF7 breast): > 200 µM | GI50 (SNB-75 CNS): > 200 µM | TGI (SNB-75 CNS): > 200 µM | GI50 (IGROV1 ovarian): > 200 µM | TGI (IGROV1 ovarian): > 200 µM | GI50 (BT-549 breast): > 200 µM | TGI (BT-549 breast): > 200 µM | GI50 (UO-31 renal): > 200 µM | TGI (UO-31 renal): > 200 µM | GI50 (SF-268 CNS): > 200 µM | TGI (SF-268 CNS): > 200 µM | GI50 (NCI/ADR-RES ovarian): > 200 µM | TGI (NCI/ADR-RES ovarian): > 200 µM | GI50 (HS 578T breast): > 200 µM | TGI (HS 578T breast): > 200 µM | GI50 (NCI-H226 lung): > 200 µM | TGI (NCI-H226 lung): > 200 µM | GI50 (786-0 renal): > 200 µM | TGI (786-0 renal): > 200 µM | GI50 (HCT-15 colon): > 200 µM | TGI (HCT-15 colon): > 200 µM | GI50 (A498 renal): > 200 µM | TGI (A498 renal): > 200 µM | GI50 (RXF 393 renal): > 200 µM | TGI (RXF 393 renal): > 200 µM | GI50 (SF-539 CNS): > 200 µM | TGI (SF-539 CNS): > 200 µM | GI50 (HT29 colon): > 200 µM | TGI (HT29 colon): > 200 µM | GI50 (UACC-62 melanoma): > 200 µM | TGI (UACC-62 melanoma): > 200 µM | GI50 (HOP-62 NSCLC): > 200 µM | TGI (HOP-62 NSCLC): > 200 µM | GI50 (OVCAR-5 ovarian): > 200 µM | TGI (OVCAR-5 ovarian): > 200 µM | GI50 (U251 CNS): > 200 µM | TGI (U251 CNS): > 200 µM | GI50 (MDA-MB-435): > 200 µM | TGI (MDA-MB-435): > 200 µM | GI50 (RPMI-8226 leukemia): > 200 µM | TGI (RPMI-8226 leukemia): > 200 µM | GI50 (SK-MEL-5 melanoma): > 200 µM | TGI (SK-MEL-5 melanoma): > 200 µM | GI50 (PC-3 prostate): > 200 µM | TGI (PC-3 prostate): > 200 µM | GI50 (MOLT-4 leukemia): > 200 µM | TGI (MOLT-4 leukemia): > 200 µM | GI50 (TK-10 renal): > 200 µM | TGI (TK-10 renal): > 200 µM | GI50 (SN12C renal): > 200 µM | TGI (SN12C renal): > 200 µM
